Literature values, collected in publication PMC5409479 (The Journal of Biological Chemistry, 2017).
One block for each substance: values may come before it.

What was measured:
[1] = tested on: GCGR, mutation of Trp-36 to Ala; settings: GCGR Trp-36 to Ala; significantly increased expression
Source text: (§1) This could also move residues Thr-35, Trp-39, Tyr-88, Leu-89, Pro-90, and Trp-91 away from the peptide interface observed in the crystal structure, while bringing Trp-33 and Arg-40 into closer proxim ...

[2] = tested on: GLP-1R, mutation of Arg-40 to Ala
Source text: as §1

[3] = tested on: GLP-1R, mutation of Trp-39 to Ala or Phe; settings: expression comparable with wild type
Source text: as §1

[4] = tested on: GLP-1R, mutation of Glu-125 to Ala; set-up: method as in PMID 19815559, PMID 21868452, PMID 20529866
GLP-1R L89A = tested on: GLP-1R L89A; set-up: method as in PMID 19861722

GCG binding (in words) [1]: no detectable binding of GCG
Substance: GCG: glucagon

Substance: GLP-1(7–36)NH2: a high affinity agonist
affinity and agonism (in words) (GLP-1R): a high affinity agonist

Substance: GLP-1(9–36)NH2
affinity and agonism (in words) (GLP-1R): a low affinity partial agonist

GLP-1 binding (in words) [3]: loss of detectable GLP-1 binding
GLP-1 peptide binding (in words) (GLP-1R L89A): abolishing GLP-1 peptide binding
Substance: GLP-1: cognate ligand of GLP-1R
binding affinity of GLP-1 (in words) [2]: small decrease in binding affinity of GLP-1
GLP-1 binding affinity or function (in words) [4]: did not significantly impact GLP-1 binding affinity or function

Substance: exendin(9–39)
affinity and agonism (in words) (GLP-1R): a high affinity antagonist
